# Measured values published in patent US12398120B2, “Substituted hydantoinamides as ADAMTS7 antagonists” (BAYER AKTIENGESELLSCHAFT, priority 2019, dated 2025).
# Target: ADAMTS4 (Homo sapiens (Human), UniProt O75173)
# Test: Selectivity assay for ADAMTS-7 modulators: ADAMTS4 (FRET substrate)
# Assay type: biochemical
# Conditions: ADAMTS4 (R&D 4307-AD) 50 nM, substrate Dabcyl-EEVKAKVQPY-Glu(Edans)-NH2 1 μM, 120 min, 32° C.
# Experimental: 1 μl test compound solution (dissolved in DMSO, at the corresponding concentration) or pure DMSO as a control was added per well. The enzymatic reaction was initiated by addition of 25 μl of the respective concentration of the respective FRET substrate (see table 2 below) in reaction buffer.
# The increase of fluorescence intensity was measured in appropriate fluorescence plate reader (e.g. TECAN Ultra) using the respective wavelengths for excitation and emission. IC50 values were calculated from percentage of inhibition of enzyme activity as a function of test compound concentration.
# Sequence of ADAMTS4 (O75173 213-685): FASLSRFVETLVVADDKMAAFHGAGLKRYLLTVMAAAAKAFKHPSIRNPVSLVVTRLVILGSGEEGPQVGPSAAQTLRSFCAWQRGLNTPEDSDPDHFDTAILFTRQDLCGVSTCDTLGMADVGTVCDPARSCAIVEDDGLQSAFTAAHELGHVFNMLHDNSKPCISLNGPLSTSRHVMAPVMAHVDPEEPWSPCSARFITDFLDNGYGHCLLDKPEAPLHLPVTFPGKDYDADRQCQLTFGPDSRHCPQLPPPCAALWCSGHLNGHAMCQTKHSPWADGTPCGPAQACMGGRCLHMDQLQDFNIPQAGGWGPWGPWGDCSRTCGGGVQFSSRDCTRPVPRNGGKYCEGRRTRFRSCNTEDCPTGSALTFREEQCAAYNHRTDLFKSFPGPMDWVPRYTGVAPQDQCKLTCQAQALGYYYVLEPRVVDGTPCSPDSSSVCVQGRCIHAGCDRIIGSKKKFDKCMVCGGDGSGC
row,SMILES,IC50 [µM]
1,"Cc1c(C2(CNC(=O)c3ccc(Cl)cc3-c3ccc(C(F)(F)F)cc3)NC(=O)NC2=O)cnn1C (single isomer, unassigned; ent-5) [Example 79, Ent-5-Chloro-N-{[4-(1,5-Dimethyl-1H-Pyrazol-4-Yl)-2,5-Dioxoimidazolidin-4-Yl]Methyl}-4′-(Trifluoromethyl)[Biphenyl]-2-Carboxamide]",2.1
2,"Cc1cc(C2(CNC(=O)c3ccc(F)c(F)c3-c3ccc(C(F)(F)F)cc3)NC(=O)NC2=O)nn1C (racemic) [Example 305, Rac-N-{[4-(1,5-Dimethyl-1H-Pyrazol-3-Yl)-2,5-Dioxoimidazolidin-4-Yl]Methyl}-5,6-Difluoro-4′-(Trifluoromethyl)[Biphenyl]-2-Carboxamide]",28
3,"CCn1nccc1C1(CNC(=O)c2ccccc2-c2ccc(C(F)(F)F)cc2)NC(=O)NC1=O (racemic) [Example 4, Rac-N-{[4-(1-Ethyl-1H-Pyrazol-5-Yl)-2,5-Dioxoimidazolidin-4-Yl]Methyl}-4′-(Trifluoromethyl)[Biphenyl]-2-Carboxamide]",19
4,"CC(C)(C)c1ccc(-c2cc(F)ccc2C(=O)NC[C@@]2(C3CC3)NC(=O)NC2=O)cc1 [Example 124, 4′-Tert-Butyl-N-{[(4R)-4-Cyclopropyl-2,5-Dioxoimidazolidin-4-Yl]Methyl}-5-Fluoro[Biphenyl]-2-Carboxamide]",42
5,"O=C1NC(=O)[C@](CNC(=O)c2ccc(Cl)cc2-c2ccc(C(F)(F)F)nc2)(C2CC2)N1 [Example 75, 4-Chloro-N-{[(4R)-4-Cyclopropyl-2,5-Dioxoimidazolidin-4-Yl]Methyl}-2-[6-(Trifluoromethyl)Pyridin-3-Yl]Benzamide]",10
6,"O=C1NC(=O)[C@](CNC(=O)c2ccc(C(F)(F)F)cc2-c2ccc(C(F)(F)F)cc2)(C2CC2)N1 [Example 117, N-{[(4R)-4-Cyclopropyl-2,5-Dioxoimidazolidin-4-Yl]Methyl}-4′,5-Bis(Trifluoromethyl)[Biphenyl]-2-Carboxamide]",61
7,"O=C1NC(=O)C(CNC(=O)c2ccc(F)cc2-c2ccc(C(F)(F)F)cc2)(c2ncccc2C(F)(F)F)N1 (racemic) [Example 240, Rac-N-({2,5-Dioxo-4-[3-(Trifluoromethyl)Pyridin-2-Yl]Imidazolidin-4-Yl}Methyl)-5-Fluoro-4′-(Trifluoromethyl)[Biphenyl]-2-Carboxamide]",> 50
8,"O=C1NC(=O)[C@](CNC(=O)c2cc(F)c(F)cc2-c2ccc(C(F)(F)F)cc2)(C2CC2)N1 [Example 20, N-{[(4R)-4-Cyclopropyl-2,5-Dioxoimidazolidin-4-Yl]Methyl}-4,5-Difluoro-4′-(Trifluoromethyl)[Biphenyl]-2-Carboxamide]",28
9,"Cc1scnc1C1(CNC(=O)c2cc(Cl)ccc2-c2ccc(C(F)(F)F)cc2)NC(=O)NC1=O (single isomer, unassigned; ent-4) [Example 18, Ent-4-Chloro-N-{[4-(5-Methyl-1,3-Thiazol-4-Yl)-2,5-Dioxoimidazolidin-4-Yl]Methyl}-4′-(Trifluoromethyl)[Biphenyl]-2-Carboxamide]",41
10,"O=C1NC(=O)C(CNC(=O)c2ccc(F)cc2-c2ccc(C(F)(F)F)cc2)(c2ncsc2C(F)(F)F)N1 (stereo not drawn) [Example 268, Ent-N-({2,5-Dioxo-4-[5-(Trifluoromethyl)-1,3-Thiazol-4-Yl]Imidazolidin-4-Yl}Methyl)-5-Fluoro-4′-(Trifluoromethyl)[Biphenyl]-2-Carboxamide]",27
11,"O=C1NC(=O)C(CNC(=O)c2ccc(F)c(F)c2-c2ccc(C(F)(F)F)cc2)(C2(F)CC2)N1 (racemic) [Example 256, Rac-5,6-Difluoro-N-{[4-(1-Fluorocyclopropyl)-2,5-Dioxoimidazolidin-4-Yl]Methyl}-4′-(Trifluoromethyl)[Biphenyl]-2-Carboxamide]",28
12,"Cc1ccc(-c2ncccc2C(=O)NC[C@@]2(C3CC3)NC(=O)NC2=O)cc1 [Example 132, N-{[(4R)-4-Cyclopropyl-2,5-Dioxoimidazolidin-4-Yl]Methyl}-2-(4-Methylphenyl)Nicotinamide]",36
13,"Cc1nocc1C1(CNC(=O)c2ccccc2-c2ccc(C(F)(F)F)nc2)NC(=O)NC1=O (racemic) [Example 41, Rac-N-{[4-(3-Methyl-1,2-Oxazol-4-Yl)-2,5-Dioxoimidazolidin-4-Yl]Methyl}-2-[6-(Trifluoromethyl)Pyridin-3-Yl]Benzamide]",30
14,"Cn1nccc1C1(CNC(=O)c2ccc(F)cc2-c2ccc(Cl)cc2)NC(=O)NC1=O (racemic) [Example 179, Rac-4′-Chloro-5-Fluoro-N-{[4-(1-Methyl-1H-Pyrazol-5-Yl)-2,5-Dioxoimidazolidin-4-Yl]Methyl}[Biphenyl]-2-Carboxamide]",12
15,"O=C1NC(=O)C(CNC(=O)c2ccccc2-c2ccc(C(F)(F)F)cc2)(C2(Cl)CC2)N1 (racemic) [Example 279, Rac-N-{[4-(1-Chlorocyclopropyl)-2,5-Dioxoimidazolidin-4-Yl]Methyl}-4′-(Trifluoromethyl)[Biphenyl]-2-Carboxamide]",13
16,"Cc1ccc(-c2cccc(Cl)c2C(=O)NC[C@@]2(C3CC3)NC(=O)NC2=O)cc1 [Example 222, 3-Chloro-N-{[(4R)-4-Cyclopropyl-2,5-Dioxoimidazolidin-4-Yl]Methyl}-4′-Methyl[1,1′-Biphenyl]-2-Carboxamide]",3
17,"Cc1ccc(C(=O)NCC2(c3ccnn3C)NC(=O)NC2=O)c(-c2ccc(C(F)(F)F)cc2)c1 (single isomer, unassigned; ent-5) [Example 308, Ent-5-Methyl-N-{[4-(1-Methyl-1H-Pyrazol-5-Yl)-2,5-Dioxoimidazolidin-4-Yl]Methyl}-4′-(Trifluoromethyl)[Biphenyl]-2-Carboxamide]",4.2
18,"O=C1NC(=O)C(CNC(=O)c2ccccc2-c2ccc(C(F)(F)F)nc2)(C2(Cl)CC2)N1 (racemic) [Example 281, Rac-N-{[4-(1-Chlorocyclopropyl)-2,5-Dioxoimidazolidin-4-Yl]Methyl}-2-[6-(Trifluoromethyl)Pyridin-3-Yl]Benzamide]",26
19,"CCCC1(CNC(=O)c2ccccc2-c2ccc(C(F)(F)F)cc2)NC(=O)NC1=O (racemic) [Example 24, Rac-N-[(2,5-Dioxo-4-Propylimidazolidin-4-Yl)Methyl]-4′-(Trifluoromethyl)[Biphenyl]-2-Carboxamide]",> 50
20,"COc1cc(Cl)ccc1-c1ccccc1C(=O)NCC1(c2ccnn2C)NC(=O)NC1=O (single isomer, unassigned; ent-4) [Example 314, Ent-4′-Chloro-2′-Methoxy-N-{[4-(1-Methyl-1H-Pyrazol-5-Yl)-2,5-Dioxoimidazolidin-4-Yl]Methyl}[Biphenyl]-2-Carboxamide]",> 50
21,"O=C1NC(=O)[C@](CNC(=O)c2cccnc2-c2ccc(C(F)(F)F)cc2)(C2CC2)N1 [Example 82, N-{[(4R)-4-Cyclopropyl-2,5-Dioxoimidazolidin-4-Yl]Methyl}-2-[4-(Trifluoromethyl)Phenyl]Pyridine-3-Carboxamide]",> 50
22,"O=C1NC(=O)[C@](CNC(=O)c2cccnc2-c2ccc(Cl)cc2)(C2CC2)N1 [Example 90, 2-(4-Chlorophenyl)-N-{[(4R)-4-Cyclopropyl-2,5-Dioxoimidazolidin-4-Yl]Methyl}Pyridine-3-Carboxamide]",50
23,"Cc1c(C2(CNC(=O)c3ccc(F)c(F)c3-c3ccc(C(F)(F)F)cc3)NC(=O)NC2=O)cnn1C (racemic) [Example 316, Rac-N-{[4-(1,5-Dimethyl-1H-Pyrazol-4-Yl)-2,5-Dioxoimidazolidin-4-Yl]Methyl}-5,6-Difluoro-4′-(Trifluoromethyl)[Biphenyl]-2-Carboxamide]",12
24,"CC(C)C1(CNC(=O)c2ccccc2-c2ccc(C(F)(F)F)nc2)NC(=O)NC1=O (stereo not drawn) [Example 211, Ent-N-[(4-Isopropyl-2,5-Dioxoimidazolidin-4-Yl)Methyl]-2-[6-(Trifluoromethyl)Pyridin-3-Yl]Benzamide]",28
25,"Cc1cnoc1C1(CNC(=O)c2ccccc2-c2ccc(C(F)(F)F)nc2)NC(=O)NC1=O (stereo not drawn) [Example 78, Ent-N-{[4-(4-Methyl-1,2-Oxazol-5-Yl)-2,5-Dioxoimidazolidin-4-Yl]Methyl}-2-[6-(Trifluoromethyl)Pyridin-3-Yl]Benzamide]",14
26,"O=C1NC(=O)C(CNC(=O)c2ccccc2-c2ccc(C(F)(F)F)cc2)(c2ccccc2)N1 (racemic) [Example 12, Rac-N-[(2,5-Dioxo-4-Phenylimidazolidin-4-Yl)Methyl]-4′-(Trifluoromethyl)[Biphenyl]-2-Carboxamide]",> 50
27,"Cn1ccnc1C1(CNC(=O)c2c(F)cccc2-c2ccc(C(F)(F)F)cc2)NC(=O)NC1=O (single isomer, unassigned; ent-3) [Example 159, Ent-3-Fluoro-N-{[4-(1-Methyl-1H-Imidazol-2-Yl)-2,5-Dioxoimidazolidin-4-Yl]Methyl}-4′-(Trifluoromethyl)[Biphenyl]-2-Carboxamide]",3.75
28,"Cn1nccc1C1(CNC(=O)c2ccccc2-c2ccc(Cl)cc2)NC(=O)NC1=O (racemic) [Example 181, Rac-4′-Chloro-N-{[4-(1-Methyl-1H-Pyrazol-5-Yl)-2,5-Dioxoimidazolidin-4-Yl]Methyl}[Biphenyl]-2-Carboxamide]",12
29,"O=C1NC(=O)[C@](CNC(=O)c2ccc(F)cc2-c2ccc(C(F)(F)F)cc2)(C2CC2)N1 [Example 116, N-{[(4R)-4-Cyclopropyl-2,5-Dioxoimidazolidin-4-Yl]Methyl}-5-Fluoro-4′-(Trifluoromethyl)[Biphenyl]-2-Carboxamide]",12
30,"O=C1NC(=O)C(CNC(=O)c2ccccc2-c2ccc(C(F)(F)F)cc2)(c2cccnn2)N1 (racemic) [Example 42, Rac-N-{[2,5-Dioxo-4-(Pyridazin-3-Yl)Imidazolidin-4-Yl]Methyl}-4′-(Trifluoromethyl)[Biphenyl]-2-Carboxamide]",> 50
